Experimental data reported in US11077114B2, “Stabilized formulations of CNS compounds” (Supernus Pharmaceuticals, Inc., priority 2010, dated 2021).
Where a name gives a salt, the structure may show the parent alone.

How the values were obtained:
[1] = cited from earlier work
[2] = Molindone hydrochloride solubility profile at ambient conditions; assay type: physicochemical; settings: acidic to slightly acidic media versus neutral to slightly alkaline pH; FIG. 1
Source text: As a weakly basic drug, molindone is typically included into formulations in the form of a salt, such as chloride, sulfate, phosphate, monohydrogenphosphate, dihydrogenphosphate, bromide, iodide, acetate, propionate, decanoate, caprylate, formate, oxalate, malonate, succinate, fumarate, maleate, citrate, lactate, tartrate, methanesulfonate, mandelate, and the like.

[3] = pH dependent solution state stability in phosphate buffer at 37° C.; assay type: physicochemical; settings: 24 hour exposure

solubility versus pH (in words) [2]	loss ([3]; pH 6.0 phosphate buffer) [%]	loss ([3]; pH 6.8 phosphate buffer) [%]	loss ([3]; pH 7.5 phosphate buffer) [%]	SMILES	tmax ([1]; following oral administration) [h]	plasma elimination half-life ([1]; oral dose)
–	–	–	–	CCc1c(C)[nH]c2c1C(=O)C(CN1CCOCC1)CC2 (stereo not drawn) [Molindone hydrochloride]	1 to 1.5	about 2 hours
greater solubility	3	6.4	7.5	CCc1c(C)[nH]c2c1C(=O)C(CN1CCOCC1)CC2 (stereo not drawn) [Molindone, 3-Ethyl-6,7-dihydro-2-methyl-5-(morpholinomethyl)indol-4(5H)-one]	–	–
